The target in data set [1] is T1, hCB2 cannabinoid receptor (Homo sapiens, UniProt P34972).
T1 construct: purchased PerkinElmer (Belgium)
The data set is described as follows: Competition binding assay, hCB2 membranes, [3H]-CP-55,940. The procedure:
hCB1 and hCB2 membranes were purchased from PerkinElmer (Belgium). […] Glass fiber filters were purchased from Whatman (Maidstone, U.K.), while Aqualuma was from PerkinElmer (Schaesberg, The Netherlands). Stock solutions of the compounds were prepared in DMSO and further diluted […] with the binding buffer to the desired concentration. Final DMSO concentrations in the assay were less than 0.1%.
The test compounds were present at varying concentrations and the non-specific binding was determined in the presence of 10 μM HU-210. After 1 h the incubation was stopped and the solutions were rapidly filtered through 0.5% PEI pretreated GF/B glass fiber filters on a M-48T Brandell cell harvester and washed twice with 5 mL ice-cold binding buffer without serum albumin. […] Assays were performed at least in triplicate.
(§1) IC50 and EC50 values were determined by non-linear regression analysis performed using the GraphPad prism 4.0 program (GraphPad Software, San Diego). The Ki values (expressed as pKi) were calculated based on the Cheng-Prusoff equation: Ki=IC50/(1+L/Kd). Statistical signification of [^35S]-GTPγS assay results was assessed using an one-way ANOVA followed by a Dunett post-test.

The target of a further data set is T2, hCB2 receptor (Homo sapiens, UniProt P34972).
T2 construct: purchased PerkinElmer (Belgium)
Nature of the data set: [35S]-GTPγS binding assay (CB2 functional activity assay). The class given is biochemical. Particulars: for EC50: [35S]-GTPγS binding, hCB2. The procedure:
The Emax value is determined by a CB2 functional activity assay (19, 20).
[^35S]-GTPγS binding Assays
[^35S]-GTPγS (1173 Ci/mmol) was purchased from Amersham (Roosendaal, The Netherlands). The binding experiments were performed at 30° C. in plastic tubes containing 40 μg protein in 0.5 mL (final volume) of binding buffer (50 mM Tris-HCl, 3 mM MgCl2, 1 mM EDTA, 100 mM NaCl, 0.1% bovine serum albumin, pH 7.4) supplemented with 20 μM GDP.
The assay was initiated by the addition of [^35S]-GTPγS (0.05 nM, final concentration). The tubes were incubated for 1 h. The incubations were terminated by the addition of 5 mL ice-cold washing buffer (50 mM Tris-HCl, 3 mM MgCl2, 1 mM EDTA, 100 mM NaCl). The suspension was immediately filtered through GF/B filters using a 48-well Brandell cell harvester and washed twice with the same ice-cold buffer. The radioactivity on the filters was counted as mentioned above. Assays were performed in triplicate.
as §1
A general note: GTPγS is a poorly hydrolysed GTP analogue; its binding reports G protein activation.

In a further data set the test system is TNBS-induced colitis. Nature of the data set: TNBS-induced colitis in mice. The class given is in vivo, C57B16 mice.
[2] abbreviates: hCB2 membranes, [3H]-CP-55,940 (1 nM), 30° C., 1 h, read-out: Ki CB2.
[3] abbreviates: CB2 functional activity assay, basal = 100%, read-out: Emax, bound stated.
Where [4] appears, read: percentage of stimulation of [35S]-GTPγS binding, basal value set at 100%, read-out: Functional activity at CB2 EMax.

Read-outs that look alike come from different tables or passages of the source. Bounds are passed on as bounds.

T1 sequence (P34972 whole entry): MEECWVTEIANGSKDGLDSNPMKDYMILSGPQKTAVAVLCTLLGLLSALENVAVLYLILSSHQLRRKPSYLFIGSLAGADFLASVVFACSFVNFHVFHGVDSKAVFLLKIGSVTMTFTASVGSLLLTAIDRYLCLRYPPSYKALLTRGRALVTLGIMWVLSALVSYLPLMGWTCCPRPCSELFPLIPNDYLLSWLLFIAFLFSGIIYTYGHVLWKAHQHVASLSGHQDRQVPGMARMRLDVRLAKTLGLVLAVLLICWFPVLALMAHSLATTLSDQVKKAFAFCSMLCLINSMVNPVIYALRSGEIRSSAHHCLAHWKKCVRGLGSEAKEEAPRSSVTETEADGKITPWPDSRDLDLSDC
T2 sequence (P34972 whole entry): as above

One may read the Ki as a measure of affinity in units of concentration, obtained from inhibition or displacement. As a reminder, the Emax is the greatest response seen or fitted, relative to the assay's reference. A word on the EC50: it is the concentration needed to bring the measured effect to its halfway point. A word on the melting point: it is the temperature, or range, at which the solid turns liquid. `CCCCCn1cc(C(=O)NC2CCCc3ccccc32)c(=O)cc1-c1ccccc1` (racemic) [Compound 14, (R,S)-4-oxo-1-pentyl-6-phenyl-N-3-(1-(1,2,3,4-tetrahydronaphthyl))-1,4-dihydropyridine-3-carboxamide] returned a melting point of 139 °C. Also, the Ki in data set [1] (setting [2]) came out at 30.9 ± 3.3 nM. The “functional character at the CB2 receptor (agonist / inverse agonist)” value on hCB2 receptor (CB2 functional activity assay) is listed as “inverse agonists”. Moreover, the Emax at hCB2 receptor (setting [3]) is below 62%. The compound further had a half-maximal effective concentration (EC50) on hCB2 receptor of 5.7 ± 0.7 nM. Besides, the Emax at hCB2 receptor (setting [4]) worked out at 40 ± 1%.

The compound `CCCCCn1cc(C(=O)NC(C)C23CC4CC(CC(C4)C2)C3)c(=O)cc1-c1ccccc1` [Compound 6, (R,S)—N-3-(1-(1-Adamantyl)ethyl)-4-oxo-1-pentyl-6-phenyl-1,4-dihydropyridine-3-carboxamide] gave a melting point of 169 °C. For the same compound, the Ki in data set [1] (setting [2]) was 14.3 ± 2.1 nM. In addition, the Ki in data set [1] (read-out: binding affinity (Ki) at the CB2 receptor) was below 500 nM. In addition, at hCB2 receptor (CB2 functional activity assay), the “functional character at the CB2 receptor (agonist / inverse agonist)” value was “inverse agonists”. Also, at hCB2 receptor (setting [3]), the Emax is below 62%. The EC50 at hCB2 receptor turned out to be 6.5 ± 1.5 nM. In addition, the Emax on hCB2 receptor (setting [4]) stood at 46 ± 3%.

`CCCCCn1cc(C(=O)NC23CC4CC(C)(CC(C)(C4)C2)C3)c(=O)cc1-c1ccccc1` [Compound 9, N3-(1-(3,5-Dimethyl)adamantyl)-4-oxo-1-pentyl-6-phenyl-1,4-dihydropyridine-3-carboxamide] displayed a melting point of 133 °C. Moreover, in data set [1] (setting [2]), the Ki was 6.6 ± 0.7 nM. The “functional character at the CB2 receptor (agonist / inverse agonist)” value on hCB2 receptor (CB2 functional activity assay) is given as “inverse agonists”. Also, the Emax at hCB2 receptor (setting [3]) was below 62%. Also, at hCB2 receptor, the EC50 was 5.8 ± 1.1 nM. Also, on hCB2 receptor (setting [4]), the Emax came to 41 ± 2%.

With `CCCCCn1cc(C(=O)NC2CCCCC2)c(=O)cc1-c1ccccc1` [Compound 13, N3-(Cyclohexyl)-4-oxo-1-pentyl-6-phenyl-1,4-dihydropyridine-3-carboxamide], the melting point is 120 °C. The Ki in data set [1] (setting [2]) stood at 10.6 ± 1.1 nM. In addition, the “functional character at the CB2 receptor (agonist / inverse agonist)” value on hCB2 receptor (CB2 functional activity assay) was “inverse agonists”. The Emax at hCB2 receptor (setting [3]) is below 62%. Also, on hCB2 receptor, the midpoint of the response, the EC50, lay at 1.9 ± 0.5 nM. Further, the Emax on hCB2 receptor (setting [4]) came out at 62 ± 2%.

Turning to `CCCCCn1cc(C(=O)N[C@@H]2CCCc3ccccc32)c(=O)cc1-c1ccccc1` [Compound 15, (R)-4-oxo-1-pentyl-6-phenyl-N-3-(1-(1,2,3,4-tetrahydronaphthyl))-1,4-dihydropyridine-3-carboxamide], the melting point is 139 °C. Besides, the Ki in data set [1] (setting [2]) was found to be 10.1 ± 1.1 nM. Further, on hCB2 receptor (CB2 functional activity assay), the “functional character at the CB2 receptor (agonist / inverse agonist)” value is on record as “inverse agonists”. Also, the Emax at hCB2 receptor (setting [3]) is below 62%. The compound also showed an EC50 at hCB2 receptor of 1.9 ± 0.4 nM. Further, the Emax at hCB2 receptor (setting [4]) stood at 42 ± 2%.

Turning to `CCCCCn1cc(C(=O)N[C@H]2CCCc3ccccc32)c(=O)cc1-c1ccccc1` [Compound 16, (S)-4-oxo-1-pentyl-6-phenyl-N-3-(1-(1,2,3,4-tetrahydronaphthyl))-1,4-dihydropyridine-3-carboxamide], the melting point was found to be 139 °C. The Ki in data set [1] (setting [2]) was found to be 369 ± 41 nM. In addition, the “functional character at the CB2 receptor (agonist / inverse agonist)” value at hCB2 receptor (CB2 functional activity assay) was “inverse agonists”. In addition, at hCB2 receptor (setting [3]), the Emax is below 62%. The compound also displayed an EC50 at hCB2 receptor of 60 ± 16 nM. Moreover, the Emax on hCB2 receptor (setting [4]) is 48 ± 3%.

In turn, `CCCCCn1cc(C(=O)NN2CCCCC2)c(=O)cc1-c1ccccc1` [Compound 17, 4-oxo-1-pentyl-6-phenyl-N-3-(piperidin-1-yl)-1,4-dihydropyridine-3-carboxamide] displayed a melting point of 122 °C. Further, the Ki in data set [1] (setting [2]) was determined as 92 ± 7 nM. The “functional character at the CB2 receptor (agonist / inverse agonist)” value on hCB2 receptor (CB2 functional activity assay) was “inverse agonists”. In addition, the Emax on hCB2 receptor (setting [3]) is below 62%. The compound further came in with an EC50 at hCB2 receptor of 26 ± 6 nM. In addition, the Emax at hCB2 receptor (setting [4]) was determined as 48 ± 2%.

`CCCCCn1cc(C(=O)NC2CCCCC2)c(=O)cc1-c1ccc(Cl)cc1` [Compound 19, 6-(4-Chlorophenyl)-N-3-cyclohexyl-4-oxo-1-pentyl-1,4-dihydropyridine-3-carboxamide] returned a melting point of 157 °C. Further, the Ki in data set [1] (setting [2]) stood at 78 ± 9 nM. In addition, the “functional character at the CB2 receptor (agonist / inverse agonist)” value on hCB2 receptor (CB2 functional activity assay) is “inverse agonists”. In addition, the Emax on hCB2 receptor (setting [3]) was below 62%. On hCB2 receptor, this compound came in with a half-maximal effective concentration (EC50) of 22 ± 4 nM. Also, the maximum response (Emax) at hCB2 receptor (setting [4]) turned out to be 39 ± 2%.

Regarding `CCCCCn1cc(C(=O)NC23CC4CC(CC(C4)C2)C3)c(=O)cc1C` [Compound 38, N3-(1-Adamantyl)-6-methyl-4-oxo-1-pentyl-1,4-dihydropyridine-3-carboxamide], the melting point came out at 195 °C. Also, the Ki in data set [1] (binding affinity (Ki) at the CB2 receptor) was below 500 nM. Besides, in data set [1] (setting [2]), the Ki was 20 ± 3 nM. In addition, the “functional character at the CB2 receptor (agonist / inverse agonist)” value on hCB2 receptor (CB2 functional activity assay) is listed as “agonists”. Besides, the Emax at hCB2 receptor (setting [3]) was above 135%. The compound further displayed an EC50 at hCB2 receptor of 5.5 ± 1.1 nM. The Emax at hCB2 receptor (setting [4]) amounted to 148 ± 2%. In addition, the “MPO activity in colon (neutrophils content)” value with TNBS-induced colitis (TNBS only 20±5) amounted to 14±4. Also, the “TNF-alpha mRNA expression in colon” value in the data set on TNBS-induced colitis (TNBS only 26±8) was determined as 18±4. Moreover, in the data set on TNBS-induced colitis (TNBS only 1610±1041), the “IL-1beta mRNA expression in colon” value came to 385±192. In addition, the “colitis macroscopic score (Wallace criteria, scale 0 to 10)” value in the data set with TNBS-induced colitis (intraperitoneally once daily from 3 days before TNBS, killed 3 days after TNBS, TNBS only 3.1±0.3) amounted to 1.8±0.7. Also, the “histological score (Ameho criteria, scale 0 to 6)” value in the data set with TNBS-induced colitis (intraperitoneally once daily, TNBS only 3.7±1) amounted to 2.5±0.8. Also, in the data set with TNBS-induced colitis (vs TNBS only), the “decrease in colitis macroscopic scores” value is reported as 42% and the “decrease of MPO activity” value was 34%.

Values taken from US20120149735A1, “1,4-Dihydropyridine Derivatives and Their Uses” (CENTRE HOSPITALIER REGIONAL UNIVERSITAIRE DE LILLE, priority 2009, published 2012).
